Assay [1] concerns Hamster Tracheal Organ Culture. Put plainly: Reversal of keratinization in hamster tracheal organ culture. The assay is classed as cell-based. The method, then:
(§1) The ODC assay measures a compound's ability to prevent the induction of ODC. The tracheal organ culture assay measures a compound's ability to reverse keratinization.
The tracheal organ culture assay is carried out as follows. Tracheas are taken from hamsters that are in very early stages of vitamin A deficiency and placed in organ culture. At the time of culture, the animals are still gaining weight; the tracheal epithelium is generally low columnar or cuboidal, with only occasional patches of squamous metaplasia. Each trachea is opened from the larynx to the carina along the membranous dorsal wall and cultured in a serum-free medium (CMRL-1066; with crystalline bovine insulin, 0.1 μg/ml; hydrocortisone hemisuccinate, 0.1 μg/ml; glutamine, 2 mM; penicillin, 100 units/ml; and streptomycin,100 μg/ml, added). Cultures are gassed with 50% oxygen, 45% nitrogen, and 5% CO2. The culture dishes are rocked at 35.5-36.0 degrees to allow the tracheas contact with both gas and medium. All tracheas are grown in medium containing no retinoid for the first 3 days. At the end of 3 days, some tracheas are harvested; almost all of these tracheas have significant squamous metaplasia, and approximately 60% have keratinized lesions. The remaining tracheas are then divided into different groups which are treated with either: (1) retinoid dissolved in dimethylsulfoxide (final concentration of DMSO in culture medium is never greater than 0.1%) or (2) an equivalent amount of DMSO alone. Culture medium is changed three times a week, and all of the remaining tracheas are harvested at the end of 10 days in culture. Tracheas are fixed in 10% buffered formalin and embedded in paraffin. Cross sections of five micrometers are made through the mid-portion, stained with hematoxylin and eosin, and then scored with a microscope for the presence of keratin and keratohyaline granules, both of which are found in approximately 90% of control cultures that received no retinoid for the entire 10 day culture period.

The subject of a further assay is Ornithine Decarboxylase. Put plainly: Ornithine decarboxylase (ODC) assay: inhibition of TPA-induced ODC induction in mouse skin. The assay is classed as in vivo, mouse (female Charles River CD-1). To be noted: topical, 1 hour before TPA (17 nmol). The protocol: as §1
The ODC assay is carried out as follows. Female Charles River CD-1 mice from Charles River Breeding Laboratories, Wilmington, Mass., are used (age 7 to 9 weeks). The dorsal hair of the mice is shaved 1 to 2 days before testing, and only mice showing no hair regrowth are used. A single dose of 12-O-tetradecanoylphorbol-13-acetate (TPA) (10.5 μg, 17 nmol) in 0.2 mL of acetone is applied topically to the back of each mouse. The test compound, at one of three dose levels (1.7, 17 and 170 nmol), dissolved in 0.2 mL of acetone is applied 1 hour before the TPA treatment to the test groups; the control group is treated with acetone alone. The mice are killed by cervical dislocation five hours after TPA treatment. Determinations are done in triplicate.
The epidermis is obtained from the sacrificed animals. To obtain sufficient material, the dorsal skins from 2 to 3 mice in each treatment group are pooled. The depilatory agent Nudit® (Helena Rubinstein, New York) is applied to the shaved area of the skin; after 5 minutes, it is washed off thoroughly with cold tap water. Then the skin is excised and plunged immediately into ice-cold water; it is then placed in a 55° C. water bath for 30 seconds and reimmersed in ice-cold water for at lease another 30 seconds. The skin is placed epidermis side up on a cold plate, and the epidermis is scraped off with a razor blade. The pooled epidermal sheets are homogenized (Polytron PT-10 homogenizer) at 0° to 4° C. for 15-20 seconds in 50 mM sodium phosphate and 0.1 mM ethylenediaminetetraacetic acid (EDTA), at a volume of 1 mL/skin.
The supernatant fraction remaining after centrifugation of the homogenate at 10,000×g for 30 seconds at 0° C. is used for the enzyme assay. Enzyme activity is determined using the microassay for ODC as described by Verma and Boutwell to measure the release of ^14 CO2 from DL-[1-^14 C]-ornithine (58 mCi/mmol) after incubation with the 10,000×g supernatant. The incubations are carried out by decanting, with a Pasteur pipette, 100 μL of the supernatant containing 100 to 120 μg of protein into two or three 15-mL Corex tubes in a shaking water bath at 37° C. The assay mixture in the tubes consists of 50 μL of 100 mM sodium phosphate buffer (pH 7.2), 10 μL of 4 mM pyridoxal phosphate, 40 μL of 25 mM dithiothreitol, and 1 μL of 0.1 M EDTA. The center wells in the tubes are filled with 200 μL of a 2:1 solution (v/v) of ethanolamine:2-methoxyethanol. The reaction is started by adding 50 μL of substrate (0.5 μCi of DL-[1-^14 C]-ornithine in 2 mM cold ornithine) at 1-minute intervals by injection to each of the stoppered tubes. Incubations are routinely carried out at 37° C. for 30 to 60 minutes. The reaction is stopped by addition of 0.5 ml of 2 M citric acid, and incubation is continued for an additional hour without heating to ensure complete absorption of ^14 CO2.
Radioactivity is measured using a toluene-based scintillant (4 g of PPO and 50 mg of POPOP/L of toluene) in a Beckman LS-250 liquid scintillation counter. Enzyme activity is determined in triplicate and expressed as nanomoles of CO2 released in 30 minutes per milligram of protein. Enzyme activity is linear for the protein concentration used. The protein concentrations of the epidermal extracts are determined by the Lowry procedure, using bovine serum albumin as the standard.

Take `CC1=C(/C=C/c2ccc3cc(C=O)ccc3c2)C(C)(C)CCC1` [Example 1, (E)-6-[2-(2,6,6-trimethyl-1-cyclohexen-1-yl)ethenyl]-2-naphthaldehyde]: the results for the “Reversal of Keratinization, Active/Total Cultures” value in assay [1] (Conc 10^-8 M), in assay [1] (Conc 10^-9 M) and in assay [1] (Conc 10^-10 M) were 15/16, 7/14 and 4/14, respectively. The “Reversal of Keratinization, Active/Total Cultures (%)” value (“Reversal … Active/Total Cultures (%)” for short) in assay [1] (Conc 10^-8 M) is reported as 94%; in assay [1] (Conc 10^-9 M), 50%; in assay [1] (Conc 10^-10 M), 28%. The “Inhibition of Induction of Ornithine Decarboxylase by 12-O-Tetradecanoylphorbol-13-acetate in Mouse Skin, % Inhibition of Control” value (“Inhibition … % Inhibition of Control” for short) in the assay on Ornithine Decarboxylase (Dose 1.7 nmol) came to 0%; in the assay on Ornithine Decarboxylase (Dose 17 nmol) it was 45%.
Take `CCOC(=O)c1ccc(/C=C(C)/C=C/C2=C(C)CCCC2(C)C)o1` [Example 4, (E)-1-(5-Carbethoxy-2-furanyl)-2-methyl-4-(2,6,6-trimethyl-1-cyclohexen-1-yl)-1,3-butadiene]: the “Reversal of Keratinization, Active/Total Cultures” value is on record as 2/7 in assay [1] (Conc 10^-8 M), 2/7 in assay [1] (Conc 10^-9 M) and 2/6 in assay [1] (Conc 10^-10 M). In addition, the “Reversal … Active/Total Cultures (%)” value in assay [1] (Conc 10^-8 M) is given as 29%; in assay [1] (Conc 10^-9 M), 29%; in assay [1] (Conc 10^-10 M), 33%. The “Inhibition … % Inhibition of Control” value in the assay on Ornithine Decarboxylase (Dose 1.7 nmol) and in the assay with Ornithine Decarboxylase (Dose 17 nmol) was 9% throughout.
On to `CCOC(=O)c1ccc(/C=C(C)/C=C/C2=C(C)CCCC2(C)C)s1` [Example 6, (E)-1-(5-Carbethoxythien-2-yl)-2-methyl-4-(2,6,6-trimethyl-1-cyclohexen-1-yl)-1,3-butadiene], for which the “Reversal of Keratinization, Active/Total Cultures” value was 13/13 in assay [1] (Conc 10^-8 M), 10/14 in assay [1] (Conc 10^-9 M) and 6/14 in assay [1] (Conc 10^-10 M). In addition, the “Reversal … Active/Total Cultures (%)” value amounted to 100% in assay [1] (Conc 10^-8 M), 71% in assay [1] (Conc 10^-9 M) and 43% in assay [1] (Conc 10^-10 M). Moreover, the “Inhibition … % Inhibition of Control” value with Ornithine Decarboxylase (Dose 1.7 nmol) is on record as 67%; with Ornithine Decarboxylase (Dose 17 nmol) it was 77%.
For the compound `CC1=C(/C=C/C(C)=C/c2ccc(C(=O)O)s2)C(C)(C)CCC1` [Example 8, (E)-1-(5-carboxythien-2-yl)-2-methyl-4-(2,6,6-trimethyl-1-cyclohexen-1-yl)-1,3-butadiene], the “Reversal of Keratinization, Active/Total Cultures” value in assay [1] (Conc 10^-8 M) is 15/15; in assay [1] (Conc 10^-9 M), 14/15; in assay [1] (Conc 10^-10 M), 7/15. For the same compound, the entries for the “Reversal … Active/Total Cultures (%)” value in assay [1] (Conc 10^-8 M), in assay [1] (Conc 10^-9 M) and in assay [1] (Conc 10^-10 M) were 100%, 93% and 47%, respectively. The “Inhibition … % Inhibition of Control” value with Ornithine Decarboxylase (Dose 1.7 nmol) was found to be 42%; in the assay on Ornithine Decarboxylase (Dose 17 nmol) it was 67%.
Take `CC1=C(/C=C/C(C)=C/c2ccc(C(=O)O)o2)C(C)(C)CCC1` [Example 5, (E)-1-(5-carboxy-2-furanyl)-2-methyl-4-(2,6,6-trimethyl-1-cyclohexen-1-yl)-1,3-butadiene]: the “Reversal of Keratinization, Active/Total Cultures” value is listed as 3/6 in assay [1] (Conc 10^-8 M), 3/7 in assay [1] (Conc 10^-9 M) and 3/7 in assay [1] (Conc 10^-10 M). The “Reversal … Active/Total Cultures (%)” value is given as 50% in assay [1] (Conc 10^-8 M), 43% in assay [1] (Conc 10^-9 M) and 43% in assay [1] (Conc 10^-10 M). For the same compound, the “Inhibition … % Inhibition of Control” value in the assay on Ornithine Decarboxylase (Dose 1.7 nmol) was 7%; in the assay with Ornithine Decarboxylase (Dose 17 nmol) it was 5%.
As to `CC1=C(/C=C/c2ccc3cc(C(=O)O)ccc3c2)C(C)(C)CCC1` [Example 3, 6-[2-(2,6,6-trimethyl-1-cyclohexen-1-yl)ethenyl]-2-naphthoicacid], the “Reversal of Keratinization, Active/Total Cultures” value is 7/7 in assay [1] (Conc 10^-8 M), 7/7 in assay [1] (Conc 10^-9 M) and 3/7 in assay [1] (Conc 10^-10 M). Moreover, the “Reversal … Active/Total Cultures (%)” value in assay [1] (Conc 10^-8 M) is on record as 100%; in assay [1] (Conc 10^-9 M) it was 100%; in assay [1] (Conc 10^-10 M) it was 43%. Moreover, the “Inhibition … % Inhibition of Control” value in the assay with Ornithine Decarboxylase (Dose 1.7 nmol) is recorded as 30%; with Ornithine Decarboxylase (Dose 17 nmol), 48%.

(Values after US4456618A, “Naphthenic and heterocyclic retinoic acid analogues” (SRI International, priority 1982, dated 1984).)
